Measurements: patent US7488822B2 (Wyeth, priority 1999, dated 2009)
Several values for one entry are separate records, joined by “and”; a condition that tells them apart may be missing. Equal values may be shown once.

Columns and labels:
[1] = tested on: rat uterine decidualization; assay: Rat decidualization assay; assay type: in vivo; conditions: for Estimated average EC50 (mg/kg, s.c.): average for dose-response curves; for Estimated EC50 (mg/kg, s.c.): uterine wet weight; for Decidualization IC50: decrease in EC50 progesterone induced decidual response
Description: The animals are treated once daily for seven days. […] Uteri are removed and trimmed of fat.
Body weight: Mean total animal body weight (default-kg)
Decidual response: [(D-C)/C]×100%

T47D cells = assay: T47D cell proliferation assay (BrdU incorporation); assay type: cell-based; conditions: half-maximal decrease in trimegestone induced BrdU incorporation, individual studies, read-out: Estimated IC50
Description: T47D cell proliferation assay • The objective of this assay is the determination of progestational and antiprogestational potency by using a cell proliferation assay in T47D cells. A compound's effect on DNA synthesis in T47D cells is measured. […] Growth medium: DMEM:F12 (1:1) (GIBCO, BRL) supplemented with 10% (v/v) fetal bovine serum (not heat-inactivated), 100 U/ml penicillin, […], and 2 mM GlutaMax (GIBCO, BRL). • b. Treatment medium: Minimum Essential Medium (MEM) (#51200-038GIBCO, BRL) phenol red-free supplemented with 0.5% charcoal stripped fetal bovine serum, 100 U/ml penicillin, […] streptomycin, and 2 mM GlutaMax (GIBCO, BRL). • c. Cell Culture • Stock T47 D cells are maintained in growth medium. For BrdU incorporation assay, cells are plated in 96-well plates (Falcon, Becton Dickinson Labware) at 10,000 cells/well in growth medium. […] Cell Proliferation Assay • At the end of BrdU labeling, the medium is removed and BrdU incorporation is measured using a cell proliferation ELISA kit (#RPN 250, Amersham Life Science) according to manufacturer's instructions. […] Then 25 μl of 1 M sulfuric acid is added to each well to stop color reaction and optical density is read in a plate reader at 450 nm within 5 min. • e. […] EC50 or IC50 values are calculated from the retransformed values. […]

SMILES: C#C[C@]1(O)CC[C@H]2[C@@H]3CCC4=CC(=O)CC[C@@H]4[C@H]3C(=C)C[C@@]21CC [3-Ketodesogestrel]
- Estimated average EC50 (mg/kg, s.c.) [1]: 0.10 mg/kg
- Estimated EC50 (mg/kg, s.c.) ([1]; individual studies): 0.10 mg/kg and 0.06 mg/kg and 0.11 mg/kg

SMILES: CC1(C)OC(=O)Nc2ccc(-c3coc(C#N)c3)cc21 [Compound 7, 4-(4,4-Dimethyl-2-oxo-1,4-dihydro-2H-benzo[d][1,3]oxazin-6-yl)-furan-2-carbonitrile]
- inhibition at 3 mg/kg ([1]; @ 3 mg/kg, read-out: Decidualization, percentage inhibition at the dose specified): 75%

SMILES: Cc1cc(C#N)sc1-c1ccc2c(c1)C1(CCCCC1)OC(=O)N2 [Compound 10, 5-(1,2-Dihydro-2-oxospiro[4H-3,1-benzoxazine-4,1-cyclohexan]-6-yl)-4-methyl-2-thiophenecabonitrile]
- Decidualization, percentage inhibition at the dose specified ([1]; @ 10 mg/kg): 50% @

SMILES: CC1(C)OC(=O)Nc2ccc(-c3cccc(Br)c3)cc21 [Compound 13, 6-(3-Bromo-phenyl)-4,4-dimethyl-1,4-dihydro-benzo[d][1,3]-oxazin-2-one]
- Decidualization IC50 [1]: 3 mg/kg

SMILES: N#Cc1cc(F)cc(-c2ccc3c(c2)C(C2CC2)(C2CC2)OC(=O)N3)c1 [Compound 15, 3-(4,4-Dicyclopropyl-2-oxo-1,4-dihydro-2H-benzo[d][1,3]oxazin-6-yl)-5-fluoro-benzonitrile]
- Decidualization IC50 [1]: 3 mg/kg

SMILES: CC1(C)OC(=O)Nc2ccc(-c3csc(C#N)c3)cc21 [Compound 17, 4-(4,4-Dimethyl-2-oxo-1,4-dihidro-2H-benzo[d][1,3]oxazin-6-yl)-thiophene-2-carbonitrile]
- Decidualization IC50 [1]: 2.3 mg/kg

SMILES: Cc1cc(C#N)sc1-c1ccc2c(c1)C(C)(C)OC(=O)N2 [Compound 18, 5-(4,4-Dimethyl-2-oxo-1,4-dihydro-2H-benzo[d][1,3]oxazin-6-yl)-4-methyl-thiophene-2-carbonitrile]
- Decidualization IC50 [1]: 1.5 mg/kg

SMILES: CC1(C)OC(=O)Nc2ccc(-c3cc(F)cc(C#N)c3)cc21 [Compound 19, 3-(4,4-Dimethyl-2-oxo-1,4-dihydro-2H-benzo[d][1,3]oxazin-6-yl)-5-fluorobenzonitrile]
- Decidualization IC50 [1]: 0.35 mg/kg

SMILES: CC1(C)OC(=O)Nc2ccc(-c3ccc(F)c(Cl)c3)cc21 [Compound 20, 6-(3-Chloro-4-fluoro-phenyl)-4,4-dimethyl-1,4-dihydro-benzo[d][1,3]oxazin-2-one]
- Decidualization IC50 [1]: 1 mg/kg

SMILES: CC1(C)OC(=O)Nc2ccc(-c3ccc(C#N)c(F)c3)cc21 [Example 114, 6-(4-Cyano-3-fluoro-phenyl)-4,4-dimethyl-1,4-dihydrobenzo[d][1,3]-oxazin-2-one]
- melting point: 272 to 275 °C

SMILES: CC1(C)OC(=O)Nc2ccc(-c3ccc(S(N)(=O)=O)s3)cc21 [Example 141, 5-(4,4Dimethyl-2-oxo-1,4-dihydro-2H-benzo[d][1,3]-oxazin-6-yl)-thiophene-2-sulfonamide]
- melting point: 258 to 260 °C

SMILES: C#C[C@]1(O)CC[C@H]2[C@@H]3CCC4=CC(=O)CC[C@@H]4[C@H]3CC[C@@]21CC [Levonorgestrel]
- Estimated average EC50 (mg/kg, s.c.) [1]: 0.10 mg/kg
- Estimated EC50 (mg/kg, s.c.) ([1]; individual studies): 0.08 mg/kg and 0.12 mg/kg and 0.09 mg/kg (2×)

SMILES: CC(=O)O[C@]1(C(C)=O)CC[C@H]2[C@@H]3C[C@H](C)C4=CC(=O)CC[C@]4(C)[C@H]3CC[C@@]21C [MPA, medroxyprogesterone acetate]
- Estimated EC50 (mg/kg, s.c.) ([1]; individual studies): 0.42 mg/kg and 0.39 mg/kg (2×)

SMILES: CC(=O)[C@H]1CC[C@H]2[C@@H]3CCC4=CC(=O)CC[C@]4(C)[C@H]3CC[C@]12C [Progesterone]
- Estimated EC50 (mg/kg, s.c.) ([1]; individual studies): 5.50 mg/kg

SMILES: CC#C[C@]1(O)CC[C@H]2[C@@H]3CCC4=CC(=O)CCC4=C3[C@@H](c3ccc(N(C)C)cc3)C[C@@]21C [RU486]
- IC50 (T47D cells): 0.016 nM and 0.018 nM
- Estimated IC50 (mg/kg, p.o.) ([1]; p.o., EC50 dose of progesterone, individual studies): 0.21 mg/kg and 0.14 mg/kg
